# Patent publication US20260078103A1, “ISOQUINOLONES AS PI3K INHIBITORS” (OnKure, Inc., priority 2022, published 2026)
# pEC50, pIC50: −log10 of the molar value. Read-outs that look alike come from different tables or passages of the source.
# Columns and labels:
# Assay type in all cases: cell-based
# [1] = system: T47D cells expressing mutant PI3Ka (H1047R); experiment: In vitro cell proliferation, T47D cells (CellTiter-Glo); settings: inhibition of proliferation, read-out: Avg T-47D EC50
# Method in brief: (§1)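 T47D cells in RPMI/10% FBS/insulin (0.2 units/mL) or SKBR3 in McCoys 5a/10% FBS, 1,500 cells/well, grown 72 h at 37 °C with 10-point compound dilutions. CellTiter-Glo luminescence; % inhibition normalised to 0.1% DMSO and 10 uM Alpelisib, EC50 from four-parameter curve fit.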
# [2] = system: SKBR3 cells express WT PI3Ka; experiment: In vitro cell proliferation, SKBR3 cells (CellTiter-Glo); settings: inhibition of proliferation
# Method in brief: as §1
# [3] = system: phosphorylation of AKT (pAKT) in T47D cells expressing mutant PI3Ka (H1047R); experiment: In vitro cell pAKT (Ser473) HTRF, T47D cells; settings: cellular pAKT, T47D cells, mutant PI3Ka (H1047R), 6 hours, read-out: Avg T-47D IC50
# Method in brief: (§2)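 pAKT (Ser473) was quantified by HTRF in lysates from cells exposed 6 h at 37 °C to 10-point compound series, with T47D in insulin-supplemented RPMI/10% FBS and SKBR3 in McCoy's 5a/10% FBS. Controls: 0.1% DMSO (high) and 10 uM alpelisib (low). IC50 from sigmoidal curve fitting.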
# [4] = system: phosphorylation of AKT (pAKT) in SKBR3 cells express WT PI3Ka; experiment: In vitro cell pAKT (Ser473) HTRF, SKBR3 cells; settings: cellular pAKT
# Method in brief: as §2
pEC50 ([1]; 72 hours),pEC50 ([2]; 72 hours),pIC50 [3],pIC50 ([4]; 6 hours),"pEC50 ([1]; Homo sapiens, T47D, 72 h)","pEC50 ([2]; Homo sapiens, SK-BR-3, 72 h)","pIC50 ([3]; Homo sapiens, T47D, 6 h)","pIC50 ([4]; Homo sapiens, SK-BR-3, 6 h)",SMILES
6.30 to 9.00,< 4.82,6.30 to 9.00,< 4.82,,,,,Cc1cc(C(C)Nc2cccc(F)c2C(=O)O)c2cc(-c3ccc(COC(F)(F)F)nc3)n(C)c(=O)c2c1 (centres unmarked) [Example 474]
,,,,4.82 to 5.70,< 4.82,4.82 to 5.70,< 4.82,Cc1cc([C@@H](C)Nc2ccccc2C(=O)O)c2cc(N3CCn4c(nnc4C4CC4)C3)n(C)c(=O)c2c1 [Example 445]
4.82 to 5.70,,4.82 to 5.70,,,< 4.82,,< 4.82,"Cc1cc(C(CF)Nc2ccccc2C(=O)O)c2cc(N3CCN(CC(F)(F)F)CC3)n(C)c(=O)c2c1 (single isomer, unassigned) [Example 37, 2-((1-(2,7-dimethyl-1-oxo-3-(4-(2,2,2-trifluoroethyl)piperazin-1-yl)-1,2-dihydroisoquinolin-5-yl)-2-fluoroethyl)amino)benzoic acid]"
,,,,6.30 to 9.00,< 4.82,6.30 to 9.00,4.82 to 5.70,COc1cccc(N2CCN(c3cc4c([C@@H](C)Nc5ccccc5C(=O)O)cc(C)cc4c(=O)n3C)CC2)c1 [Example 147]
,,,,6.30 to 9.00,< 4.82,6.30 to 9.00,< 4.82,Cc1cc([C@@H](C)Nc2ccccc2C(=O)O)c2cc(-c3ccc(C4(C#N)CC4)nc3)n(C)c(=O)c2c1 [Example 331]
,,,,6.30 to 9.00,4.82 to 5.70,6.30 to 9.00,< 4.82,C[C@@H](Nc1ccccc1C(=O)O)c1cc(F)cc2c(=O)n(C)c(C34CC(C(F)(F)C(F)(F)F)(C3)C4)cc12 [Example 571]
,,,,6.30 to 9.00,< 4.82,6.30 to 9.00,< 4.82,Cc1cc([C@@H](C)Nc2ccccc2C(=O)O)c2cc(-c3cnc(C4CC4)nc3)n(C)c(=O)c2c1 [Example 307]
5.70 to 6.30,< 4.82,6.30 to 9.00,< 4.82,,,,,"C[C@@H](Nc1cccc(F)c1C(=O)O)c1cc(F)cc2c(=O)n(C)c(C3C[C@@H]3C(F)(F)F)cc12 (single isomer, unassigned) [Example 428]"
6.30 to 9.00,4.82 to 5.70,6.30 to 9.00,4.82 to 5.70,,,,,Cc1cc([C@@H](C)Nc2ccc(F)cc2C(=O)O)c2cc(-c3cnc(C(C)(C)F)c(F)c3)n(C)c(=O)c2c1 [Example 269]
4.82 to 5.70,4.82 to 5.70,< 4.82,,,,,< 4.82,"Cc1cc(C(C)Nc2ccccc2C(=O)O)c2cc(N3CCC(c4ccccc4)C3)n(C)c(=O)c2c1 (single isomer, unassigned) [Example 104]"
,,,,5.70 to 6.30,< 4.82,5.70 to 6.30,< 4.82,Cc1cc([C@@H](C)Nc2ccccc2C(=O)O)c2cc(N3CCN(c4ncnn4C)CC3)n(C)c(=O)c2c1 [Example 198]
4.82 to 5.70,,< 4.82,,,< 4.82,,< 4.82,"Cc1cc(C(C)Nc2ccccc2C(=O)O)c2cc(N3Cc4ccncc4C3)n(C)c(=O)c2c1 (single isomer, unassigned) [Example 106]"
6.30 to 9.00,4.82 to 5.70,6.30 to 9.00,4.82 to 5.70,,,,,Cc1nc(C)c(-c2ncc(-c3cc4c(C(C)Nc5ccccc5C(=O)O)cc(F)cc4c(=O)n3C)cc2F)cc1F (centres unmarked) [Example 471]
,,,,6.30 to 9.00,< 4.82,6.30 to 9.00,< 4.82,Cc1cnc(N2CCN(c3cc4c([C@@H](C)Nc5cccc(F)c5C(=O)O)cc(F)cc4c(=O)n3C)CC2)s1 [Example 417]
6.30 to 9.00,< 4.82,6.30 to 9.00,< 4.82,,,,,"C[C@@H](Nc1ccccc1C(=O)O)c1cc(F)cc2c(=O)n(C)c(C3C[C@@H]3C(F)(F)F)cc12 (single isomer, unassigned) [Example 452]"
,,,,6.30 to 9.00,< 4.82,6.30 to 9.00,< 4.82,COC(C)(C)c1ncc(-c2cc3c([C@@H](C)Nc4cccc(F)c4C(=O)O)cc(C)cc3c(=O)n2C)cc1F [Example 346]
6.30 to 9.00,4.82 to 5.70,6.30 to 9.00,< 4.82,,,,,"Cc1cc([C@@H](C)Nc2ccccc2C(=O)O)c2cc(C3C[C@H]3C(C)C)n(C)c(=O)c2c1 (single isomer, unassigned) [Example 312]"
